Test results published in US7282347B2, “Method for extracting quantitative information relating to interactions between cellular components” (Fisher Bioimage APS, priority 2000, dated 2007).
Entries after “also recorded” stand apart in the source; their conditions may differ. Where two headings read alike, the source gives them in different places.

What was measured:
PKAcat-GFP = assay: forskolin induced PKAcat-GFP translocation quantified by extraction procedure, FLIPR; type: cell-based; details: Homo sapiens
Experimental: Upon increase in cellular cAMP (e.g. by stimulation of adenylate cyclase activity by forskolin) PKAcat dissociates from its regulatory subunits and spots “dissolves” into the cytosol. The total GFP intensity measured after removing cytosolic PKAcat-GFP through the extraction procedure is indicative of the level of non-activated, non-dissociated PKAcat.
In this example the extraction procedure is used to quantify a forskolin dose response in a PKAcat-GFP assay.
Cells are treated with forskolin in various conc. for 15 min. (remove spots). Cells are extracted (Formalin 0.2%/Triton-x 0.2%). Signal is read in FLIPR.
Dose response on the effect of forskolin to stimulate PKA translocation.

[1] = target: T1, HSPDE4A4-SosA anchor probe and hGrb2-EGFP detectable probe (Homo sapiens, UniProt P27815+Q07890); assay: redistribution trap: CHO cells co-transfected with HSPDE4A4-SosA anchor probe and hGrb2-EGFP detectable probe; type: cell-based; details: 10 μM RP73401 for 75 minutes in presence of 10 micromolar rolipram
T1 construct: expressed in transfected cells; host or cells: CHO
Description: Sos is a guanine nucleotide exchange factor responsible for activation Ras-like GTPases, Grb2 an adaptor component responsible for recuiting Sos to the activated receptor. In this example the anchor probe is based on HSPDE4A4. CHO cells are stably co-transfected with anchor probe HSPDE4A4-SosA and “detectable” probe hGrb2-EGFP as described in Example 2 and Example 3. The anchor probe is selected for with zeocin, and the detectable probe with neomycin (G418). […] The transfected cells are a mixed non-clonal population.
The transfected cells are a mixed non-clonal population.

[2] = system: CHO cells stably expressing HSPDE4A4B-GFP; assay: cellular cAMP content (kit RPA538) in CHO cells stably expressing HSPDE4A4B-GFP; type: cell-based, Chinese hamster; details: rolipram 0.03 μM to 3 μM, 16 to 18 hours
Experimental: (§1) After the incubation period, cAMP content is measured using a commercial kit from Amersham-Pharmacia Biotech, kit # RPA538, according to the manufacturers instructions.
(§2) The amount of cAMP/well was calculated using regression analysis from a cAMP standrad curve, as recommended by the manufacturers of the assay kit.
(§3) After the incubation period, cAMP content is measured using a commercial kit from Amersham-Pharnacia Biotech, kit # RPA538, according to the manufacturers instructions.
CHO cells stably expressing HSPDE4A4B-GFP (see Example 2), and untransfected CHO cells are seeded into individual wells of a 96-well microtiter plate at a density of 1.2×10^5 cells/well, and cultured for 16 to 18 hours in HAM F-12 medium with glutamax, 100 μg penicillin-streptomycin mixture ml^−1 and 10% FBS. […] After the treatment period, cAMP content is measured using a commercial kit from Amersham-Pharmacia Biotech, kit # RPA538, according to the manufacturers instructions.

untransfected CHO cells = assay: cellular cAMP content (kit RPA538) in untransfected CHO cells; type: cell-based, Chinese hamster
Experimental: as §1, §2, §3
CHO cells stably expressing HSPDE4A4B-GFP (see Example 2), and untransfected CHO cells are seeded into individual wells of a 96-well microtiter plate at a density of 1.2×10^5 cells/well, and cultured for 16 to 18 hours in HAM F-12 medium with glutamax, 100 μg penicillin-streptomycin mixture ml^−1 and 10% FBS. After 16 to 18 hours incubation, cells are treated for 60 minutes with various concentrations of forskolin. After the treatment period, cAMP content is measured using a commercial kit from Amersham-Pharmacia Biotech, kit # RPA538, according to the manufacturers instructions.

[3] = target: T2, Cys1 domain of PKCgamma (Cys1-EGFP) (Homo sapiens, UniProt P05129); assay: redistribution of Cys1-EGFP to the plasma membrane in CHO cells; type: cell-based; details: 100 nM PMA, 5 minutes
T2 construct: the 90 N-terminal amino acids of human PKCgamma (the Cys1 domain); expressed in transfected cells; host or cells: CHO
Experimental: Time-lapse images of CHO cells expressing Cys1-EGFP, the fusion of EGFP to the C-terminal of the cys1 domain from human protein kinase C isoform gamma, before (a) and after 5 minutes treatment with 100 nM PMA.

[4] = target: T3, Cys1-hGrb2 anchor probe and EGFP-Sos-Cterm detectable probe (Homo sapiens, UniProt P05129+P62993); assay: redistribution trap: CHO cells expressing Cys1-hGrb2 anchor probe and EGFP-Sos-Cterm detectable probe; type: cell-based; details: 100 nM PMA, 5 minutes
T3 construct: the 90 N-terminal amino acids of human PKCgamma (the Cys1 domain); expressed in transfected cells; host or cells: CHO
Experimental: (§4) This example describes the creation of another cell line suitable for screening compounds against the interaction between Grb2 and the C-terminal sequence of Sos (amino acids 1067 to 1332 of Sos). This is the same interaction pair described in Example 6, except that the anchor probe is based upon the Cys1 domain of protein kinase C isoform gamma, and therefore locates in unstimulated cells throughout the cytoplasm and nucleus. When these cells are treated with 100 nM PMA the anchor probe redistributes to the plasma membrane, and if an interaction occurs between anchor and detectable probes, the GFP fluorescence will also be seen to redistribute to the plasma membrane. […] Treatment with PMA is used to confirm that an interaction between anchor and detectable probes occurs in this system, since redistribution of fluorescence to the plasma membrane can only occur if interaction of the two probes has first taken place. This can be checked in CHO cells transfected with EGFP-Sos-Cterm alone, where PMA has no effect on the distribution of fluorescence.
(§5) CHO cells are stably co-transfected with the anchor probe Cys1-hGrb2 and the GFP-labelled detectable probe EGFP-Sos-Cterm as described in Example 2 and Example 6. […] The majority of cells in before PMA treatment have a rather general cytoplasmic and nuclear distribution of fluorescence. […]

[5] = target: T4, Cys1-hGrb2 anchor probe and EGFP-Sos-Cterm detectable probe (Homo sapiens, UniProt P62993); assay: as above; type: cell-based; details: control cells with EGFP-Sos-Cterm alone, PMA
T4 construct: the 90 N-terminal amino acids of human PKCgamma (the Cys1 domain); expressed in transfected cells; host or cells: CHO
Experimental: as §4, §5

PDE4A4 = PDE4A4 (Homo sapiens, UniProt P27815); assay: formation of dense aggregates (spots) of PDE4A4 in transfected CHO cells; details: read-out: EC50 for formation of dense PDE4A4 aggregates (spots) in the cytoplasm
Sequence of PDE4A4 (P27815 whole entry): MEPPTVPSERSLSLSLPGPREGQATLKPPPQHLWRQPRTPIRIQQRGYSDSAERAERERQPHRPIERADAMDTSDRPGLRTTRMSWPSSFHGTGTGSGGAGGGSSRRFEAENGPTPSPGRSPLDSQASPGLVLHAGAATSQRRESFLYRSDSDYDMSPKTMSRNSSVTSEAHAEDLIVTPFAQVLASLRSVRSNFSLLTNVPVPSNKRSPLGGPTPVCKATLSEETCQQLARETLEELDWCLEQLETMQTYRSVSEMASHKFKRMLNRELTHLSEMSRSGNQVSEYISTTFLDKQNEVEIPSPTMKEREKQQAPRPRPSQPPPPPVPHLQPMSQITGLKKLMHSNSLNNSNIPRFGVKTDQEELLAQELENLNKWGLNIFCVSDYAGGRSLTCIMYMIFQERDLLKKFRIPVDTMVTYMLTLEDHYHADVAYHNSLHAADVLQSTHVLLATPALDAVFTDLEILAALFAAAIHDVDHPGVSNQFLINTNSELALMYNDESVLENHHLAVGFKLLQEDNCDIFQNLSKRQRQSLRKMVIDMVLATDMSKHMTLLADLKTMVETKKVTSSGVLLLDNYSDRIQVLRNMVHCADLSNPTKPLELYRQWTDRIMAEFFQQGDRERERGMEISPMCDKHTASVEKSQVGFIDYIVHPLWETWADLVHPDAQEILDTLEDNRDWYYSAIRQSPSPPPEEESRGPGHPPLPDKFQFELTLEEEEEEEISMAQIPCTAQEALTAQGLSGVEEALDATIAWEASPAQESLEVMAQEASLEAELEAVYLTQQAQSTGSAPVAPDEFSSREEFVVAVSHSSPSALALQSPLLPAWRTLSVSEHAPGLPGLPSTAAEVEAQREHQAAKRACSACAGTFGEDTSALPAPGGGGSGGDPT
Experimental: The amount of fluorescent spots and other accumulations of a transfected probe in a population of cells can be imaged and quantified in an automated fashion to yield a measure of mean number of spots per cell. For this purpose cells are cultured to near 80% to 90% confluence in coverglass chambers or plastic 96-well plates, given the relevant treatment and allowed to respond. At the end of the response period, cells are chemically fixed in 4% formaldehyde buffer (Lillies fixative buffer, pH7.4: Bie and Berntsen A/S, Denmark) for 30 minutes to 2 hours, and then washed three times in phosphate buffered saline (PBS, Life Technologies, Denmark). An alternative simultaneous fixation+permeabilisation method, useful to remove non-localised (i.e. mobile) GFP probe from the cytoplasm, involves a single fixation process incorporating 0.4% to 2% formaldehyde buffer (10% to 50% strength Lillies fixative) plus 0.2% to 1% Triton X-100. The actual concentrations used need to be optimised for the cell type being used; for CHO cells 2% formaldehyde+1% Triton X-100 gives excellent results. The combined fixative+detergent are applied to the cells for 10 to 20 minutes at room temperature. Cells are then washed three times with phosphate buffered saline. […] Fluorescence illumination comes from a 100 W HBO lamp. […]

T1 sequence (P27815+Q07890 fused): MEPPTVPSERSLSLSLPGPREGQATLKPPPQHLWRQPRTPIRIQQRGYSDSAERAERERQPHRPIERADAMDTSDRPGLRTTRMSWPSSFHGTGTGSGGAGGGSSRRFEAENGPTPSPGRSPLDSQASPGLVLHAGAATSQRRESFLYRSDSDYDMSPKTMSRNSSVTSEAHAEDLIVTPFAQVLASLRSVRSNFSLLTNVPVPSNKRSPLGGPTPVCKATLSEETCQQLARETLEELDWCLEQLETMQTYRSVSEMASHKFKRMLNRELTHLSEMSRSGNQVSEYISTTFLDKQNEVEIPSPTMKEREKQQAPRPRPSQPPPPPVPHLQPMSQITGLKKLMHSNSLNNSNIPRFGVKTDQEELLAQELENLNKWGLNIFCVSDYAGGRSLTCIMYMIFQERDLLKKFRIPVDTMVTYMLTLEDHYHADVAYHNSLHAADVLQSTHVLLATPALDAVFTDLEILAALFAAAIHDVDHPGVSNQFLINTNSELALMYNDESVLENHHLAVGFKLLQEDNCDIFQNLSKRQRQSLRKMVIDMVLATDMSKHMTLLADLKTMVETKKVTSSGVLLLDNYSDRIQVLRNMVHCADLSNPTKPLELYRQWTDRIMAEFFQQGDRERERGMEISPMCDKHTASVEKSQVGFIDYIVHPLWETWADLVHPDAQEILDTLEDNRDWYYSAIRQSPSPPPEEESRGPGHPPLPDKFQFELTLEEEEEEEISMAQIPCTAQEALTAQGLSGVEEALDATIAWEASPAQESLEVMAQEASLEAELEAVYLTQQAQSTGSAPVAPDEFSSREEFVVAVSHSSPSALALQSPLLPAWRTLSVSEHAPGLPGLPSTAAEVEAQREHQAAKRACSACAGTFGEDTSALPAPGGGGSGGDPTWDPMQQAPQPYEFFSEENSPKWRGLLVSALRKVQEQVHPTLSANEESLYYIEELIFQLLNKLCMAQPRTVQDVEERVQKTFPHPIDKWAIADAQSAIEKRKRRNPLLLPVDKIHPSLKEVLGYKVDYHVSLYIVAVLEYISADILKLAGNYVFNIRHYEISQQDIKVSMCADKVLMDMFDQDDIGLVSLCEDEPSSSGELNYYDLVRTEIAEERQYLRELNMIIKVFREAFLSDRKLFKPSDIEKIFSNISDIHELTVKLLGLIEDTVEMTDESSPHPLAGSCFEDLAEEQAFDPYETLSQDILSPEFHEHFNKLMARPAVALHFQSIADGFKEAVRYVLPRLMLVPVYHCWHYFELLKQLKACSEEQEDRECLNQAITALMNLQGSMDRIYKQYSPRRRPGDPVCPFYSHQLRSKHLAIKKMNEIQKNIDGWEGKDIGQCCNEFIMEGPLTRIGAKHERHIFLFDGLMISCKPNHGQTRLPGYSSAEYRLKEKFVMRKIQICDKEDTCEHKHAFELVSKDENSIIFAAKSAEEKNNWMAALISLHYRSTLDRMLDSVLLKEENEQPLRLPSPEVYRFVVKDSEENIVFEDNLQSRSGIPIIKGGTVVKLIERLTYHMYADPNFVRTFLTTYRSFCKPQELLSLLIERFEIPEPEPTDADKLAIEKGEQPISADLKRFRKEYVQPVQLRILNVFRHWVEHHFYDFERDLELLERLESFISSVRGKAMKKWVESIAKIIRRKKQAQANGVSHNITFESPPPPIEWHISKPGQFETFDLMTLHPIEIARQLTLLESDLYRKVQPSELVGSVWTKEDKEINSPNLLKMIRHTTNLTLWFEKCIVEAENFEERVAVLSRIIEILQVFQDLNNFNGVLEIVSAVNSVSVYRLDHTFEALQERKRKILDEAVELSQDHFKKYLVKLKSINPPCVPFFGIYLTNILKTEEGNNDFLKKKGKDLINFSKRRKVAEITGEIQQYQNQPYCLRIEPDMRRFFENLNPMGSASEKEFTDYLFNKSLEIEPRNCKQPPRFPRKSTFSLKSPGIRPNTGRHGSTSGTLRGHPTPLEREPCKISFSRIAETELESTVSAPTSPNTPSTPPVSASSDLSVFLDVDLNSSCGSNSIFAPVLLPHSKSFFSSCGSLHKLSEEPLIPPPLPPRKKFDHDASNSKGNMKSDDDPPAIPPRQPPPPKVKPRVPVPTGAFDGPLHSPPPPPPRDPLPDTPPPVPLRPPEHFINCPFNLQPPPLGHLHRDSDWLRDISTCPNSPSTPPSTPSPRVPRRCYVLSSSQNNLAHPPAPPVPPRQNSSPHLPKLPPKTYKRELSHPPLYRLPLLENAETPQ
T1 sequence (P62993 whole entry partner): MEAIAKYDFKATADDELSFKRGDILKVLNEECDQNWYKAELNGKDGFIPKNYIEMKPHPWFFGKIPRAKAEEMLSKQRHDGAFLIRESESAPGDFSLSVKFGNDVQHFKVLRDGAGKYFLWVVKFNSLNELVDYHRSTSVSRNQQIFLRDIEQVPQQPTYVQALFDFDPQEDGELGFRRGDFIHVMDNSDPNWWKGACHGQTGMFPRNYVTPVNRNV
T4 sequence (P62993 whole entry, looked up, the tested form may be a part): as the sequence (P62993 whole entry partner) above

`C=C[C@@]1(C)CC(=O)[C@]2(O)[C@@]3(C)[C@@H](O)CCC(C)(C)[C@@H]3[C@H](O)[C@H](OC(C)=O)[C@@]2(C)O1` [forskolin] was tested, and the EC50 (PKAcat-GFP; 0.25 h, forskolin 15 min, extraction Formalin 0.2%/Triton-x 0.2%, FLIPR, read-out: ED50 of forskolin dose response in PKAcat-GFP assay) was ~3000 nM and the EC50 (PKAcat-GFP; FIG. 18 dose response, read-out: calculated EC50 for forskolin to stimulate PKA translocation) was 3280 nM.
In the case of `COc1ccc(C(=O)Nc2c(Cl)cncc2Cl)cc1OC1CCCC1` [RP73401, Piclamilast], the “effect on rolipram-induced GFP-bright spots” value [1] is reported as “spots disappear; also recorded: dissolves rolipram-induced spots”.
With `COc1ccc(C2CNC(=O)C2)cc1OC1CCCC1` (stereo not shown) [rolipram] the “cellular cAMP concentration, rolipram treatment” value [2] was “no appreciable increase”, the “cellular cAMP, rolipram 10 μM” value (untransfected CHO cells; 10 μM rolipram, probably not significant) was “slight rise” and the “cellular cAMP concentration, rolipram treatment” value (untransfected CHO cells; rolipram 0.03 μM to 3 μM, 16 to 18 hours) was “no appreciable increase”.
With `CCCCCCCCCCCCCC(=O)O[C@@H]1[C@@H](C)[C@@]2(O)[C@@H](C=C(CO)C[C@]3(O)C(=O)C(C)=C[C@@H]23)[C@@H]2C(C)(C)[C@]12OC(C)=O` [PMA, phorbol-12-myristate-13-acetate] the “redistribution of Cys1-EGFP” value [3] was “redistributes from the cytoplasm and nucleus to the plasma membrane”, the “redistribution of EGFP-Sos-Cterm fluorescence” value [4] was “measurable shift in fluorescence to the plasma membrane” and the “distribution of fluorescence in CHO cells transfected with EGFP-Sos-Cterm alone” value [5] was “no effect”.
With `O=c1c2cccnc2n(-c2cccc([N+](=O)[O-])c2)c(=O)n1Cc1ccncc1` [RS25344] the EC50 (PDE4A4) was 20 nM.
